From ChEMBL document CHEMBL4251550, “Applications of parallel synthetic lead hopping and pharmacophore-based virtual screening in the discovery of efficient glycine receptor potentiators” (Eur J Med Chem, 2017) come the findings set out here.

Series [1] is described as follows: Apparent permeability in MDCK cells. The class given is ADME, cell-based, Canis lupus familiaris. The note with it: dog.
The nature of series [2]: Solubility of compound in FaSSIF. The class given is physicochemical.
A short description of series [3]: Volume of distribution at steady state in CD1 mouse at 1 mg/kg, iv. As to conditions: in vivo, read-out: Vdss. It is filed as ADME, organism-based.

≈ marks a conversion by molar mass, not a printed value. Some results are limits rather than exact numbers.

What is called Papp is a coefficient for how fast a substance crosses the barrier. As a reminder, the solubility is how much of the substance goes into solution per volume. Regarding `CN1C(=O)[C@@H]2CN(S(=O)(=O)c3ccc4c(c3)OCO4)C[C@@H]2c2ccccc21`, the apparent permeability (Papp) in series [1] came to 44 ×10⁻⁶ cm/s. Moreover, the solubility in series [2] is under 1 µM.

In the case of `COc1ccc(Cl)cc1OC1CN(S(=O)(=O)c2ccc3[nH]c(=O)oc3c2)C1`, in series [1], the apparent permeability coefficient (Papp) came out at 39 ×10⁻⁶ cm/s. For the same compound, the solubility in series [2] turned out to be 96 µM (≈ 39.4 µg/mL). In addition, the Vd in series [3] is 1.4 L/kg.

Turning to `COc1ccccc1OC1CN(S(=O)(=O)c2ccc3c(c2)OCO3)C1`, the apparent permeability (Papp) in series [1] amounted to 44 ×10⁻⁶ cm/s. In addition, the concentration in solution in series [2] (solubility) came to 102 µM (≈ 37.1 µg/mL).

Turning to `O=S(=O)(c1ccc2c(c1)OCO2)N1CC[C@@H](c2ccccc2F)C1`, the Papp in series [1] was found to be 28 ×10⁻⁶ cm/s. This compound came in with a solubility in series [2] of 17 µM (≈ 5.94 µg/mL).
